The supplement of paper PMC10307832

Assays:
Experiment in all cases: relative viability (nuclei count vs DMSO), 5 days (fraction); higher = more cells survive
[1] = compound: COc1cc2c(Oc3ccc4[nH]c(C)cc4c3F)ncnc2cc1OCCCN1CCCC1 [Cediranib] + O=C(CCCCCCC(=O)Nc1ccccc1)NO [Vorinostat] (partner 1 µM)
Procedure, shortened: (§1)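 Lung cancer cell lines in 1536-well plates were dosed by pin tool the day after seeding, either with one drug alone or with a fixed anchor-drug dose plus five library-drug doses (not always all listed) in √10 steps. After 5 days, cells were fixed and their nuclei stained in one step (final 0.05% Triton X-100, 1% formaldehyde, 1 ug/ml Hoechst), then counted on 4× images. Relative viability is the nuclei count in treated wells divided by that in vehicle wells. Values are medians of duplicate plates.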

[2] = compound: COc1cc2c(Oc3ccc4[nH]c(C)cc4c3F)ncnc2cc1OCCCN1CCCC1 [Cediranib] + CC(=O)Nc1cccc(-n2c(=O)n(C3CC3)c(=O)c3c(Nc4ccc(I)cc4F)n(C)c(=O)c(C)c32)c1 [Trametinib] (partner 0.02 µM)
Procedure, shortened: as §1

[3] = compound: Nc1ncn([C@H]2C[C@H](O)[C@@H](CO)O2)c(=O)n1 [Decitabine] + CC1(C)CCC(c2ccc(Cl)cc2)=C(CN2CCN(c3ccc(C(=O)NS(=O)(=O)c4ccc(N[C@H](CCN5CCOCC5)CSc5ccccc5)c(S(=O)(=O)C(F)(F)F)c4)cc3)CC2)C1 [Navitoclax] (partner 0.5 µM)
Procedure, shortened: as §1

| Cell Line | relative viability ([1]; first compound 0.04 µM) | relative viability ([1]; first compound 0.1265 µM) | relative viability ([1]; first compound 0.4 µM) | relative viability ([1]; first compound 1.265 µM) | relative viability ([1]; first compound 4 µM) | relative viability ([2]; first compound 0.04 µM) | relative viability ([2]; first compound 0.1265 µM) | relative viability ([2]; first compound 0.4 µM) | relative viability ([2]; first compound 1.265 µM) | relative viability ([2]; first compound 4 µM) | relative viability ([3]; first compound 0.04 µM) | relative viability ([3]; first compound 0.1265 µM) | relative viability ([3]; first compound 0.4 µM) | relative viability ([3]; first compound 1.265 µM) | relative viability ([3]; first compound 4 µM) |
| --- | --- | --- | --- | --- | --- | --- | --- | --- | --- | --- | --- | --- | --- | --- | --- |
| NCI-H1650 | 0.629 | 0.546 | 0.599 | 0.548 | 0.679 | 0.574 | 0.606 | 0.541 | 0.54 | 0.393 | 0.546 | 0.482 | 0.434 | 0.329 | 0.295 |
| NCI-H1651 | 0.518 | 0.591 | 0.58 | 0.53 | 0.555 | 0.826 | 0.874 | 0.846 | 0.855 | 0.821 | 0.893 | 1.03 | 0.958 | 0.684 | 0.876 |
| NCI-H1666 | 1.18 | 1.06 | 0.908 | 0.955 | 1.03 | 0.87 | 0.655 | 0.838 | 0.844 | 0.877 | 0.85 | 0.776 | 0.687 | 0.465 | 0.487 |
| NCI-H1734 | 0.718 | 0.805 | 0.77 | 0.768 | 0.911 | 0.658 | 0.663 | 0.71 | 0.633 | 0.683 | 0.583 | 0.57 | 0.424 | 0.268 | 0.246 |
| NCI-H1755 | 0.808 | 0.65 | 0.683 | 0.763 | 0.762 | 0.8 | 0.804 | 0.709 | 0.81 | 0.783 | 0.912 | 0.887 | 0.696 | 0.521 | 0.302 |
| NCI-H1793 | 0.954 | 0.679 | 0.67 | 0.49 | 0.797 | 0.449 | 0.446 | 0.407 | 0.435 | 0.432 | 0.356 | 0.406 | 0.333 | 0.227 | 0.169 |
| NCI-H1915 | 0.5 | 0.426 | 0.485 | 0.501 | 0.544 | 0.318 | 0.308 | 0.3 | 0.307 | 0.272 | 0.338 | 0.253 | 0.223 | 0.184 | 0.188 |
| NCI-H1944 | 0.588 | 0.694 | 0.502 | 0.53 | 0.643 | 0.402 | 0.377 | 0.409 | 0.4 | 0.474 | 0.689 | 0.669 | 0.564 | 0.423 | 0.365 |
| NCI-H1975 | 0.757 | 0.716 | 0.704 | 0.669 | 0.785 | 0.377 | 0.388 | 0.338 | 0.373 | 0.337 | 0.431 | 0.317 | 0.291 | 0.256 | 0.256 |
